Test results taken from BindingDB's records for doi:10.1016/j.ejmech.2020.112529 (Jagiellonian University, 2020).

Target: 5-HT2A receptor (Homo sapiens)
Assay: Displacement of [3H]-Ketanserin from human 5-HT2A receptor expressed in CHO-K1 cells incubated for 1 hr by microbeta counting method

Compared with `CC(Oc1ccccc1Cl)c1nc(N)nc(N2CCN(C)CC2)n1` (configuration not stated), `CC(Oc1cccc(Cl)c1Cl)c1nc(N)nc(N2CCN(C)CC2)n1` (configuration not stated) is 6.8-fold lower in Ki: 1830 nM for the first, 268 nM for the second.

Going from `CN1CCN(c2nc(N)nc(CCCOc3cccc(Cl)c3Cl)n2)CC1` to `CN1CCN(c2nc(N)nc(CCCOc3cc(Cl)ccc3Cl)n2)CC1`, the Ki rises from 649 nM to 1460 nM (2.2-fold). The first binds more tightly here.

Compared with `CCCCC(Oc1cc(Cl)ccc1Cl)c1nc(N)nc(N2CCN(C)CC2)n1` (configuration not stated), `CCCCC(Oc1cc(Cl)cc(Cl)c1)c1nc(N)nc(N2CCN(C)CC2)n1` (configuration not stated) is 1.9-fold higher in Ki: 431 nM for the first, 839 nM for the second.

In the case of `CN1CCN(c2nc(N)nc(CCCOc3ccc(Cl)c(Cl)c3)n2)CC1`, the Ki is reported as 906 nM.
